Patent publication US20070155803A1, “Protease inhibitors” (ProZymex A/S, priority 2003, published 2007)
Square brackets hold non-standard residues; d marks the D form. Peptide text beside a SMILES is read from it. Phe(3-F) = N[C@@H](Cc1cccc(F)c1)C(=O)O; hPhe = N[C@@H](CCc1ccccc1)C(=O)O; Abu = CC[C@H](N)C(=O)O; azaGly = NNC(=O)O

Assays:
[1] = biological target: T1, Human neutrophil elastase (Homo sapiens, UniProt P08246); assay: Human neutrophil elastase assay; assay type: biochemical
T1 construct: purchased Calbiochem 324681
T1 sequence (P08246 30-267): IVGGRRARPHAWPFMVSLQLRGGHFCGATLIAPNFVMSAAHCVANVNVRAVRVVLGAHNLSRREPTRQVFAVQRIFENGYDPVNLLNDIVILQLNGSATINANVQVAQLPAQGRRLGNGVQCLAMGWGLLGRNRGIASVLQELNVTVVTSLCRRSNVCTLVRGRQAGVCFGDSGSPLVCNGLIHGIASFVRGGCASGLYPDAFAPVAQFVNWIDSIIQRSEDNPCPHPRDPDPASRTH
Description: Human Neutrophil Elastase Assay
Using this assay, the selectivity of a compound of the invention for hDPP-I over human neutrophil elastase was determined, using a fluorogenic substrate.
Buffer containing 100 mM Tris/HCl pH 7.5 (25° C.), and 500 mM NaCl.
Human neutrophil elastase (Calbiochem Cat # 324681, 50 ng/µL stock) was reconstituted in 50 mM sodium acetate pH 5.5 and 200 mM NaCl, then stored at −20° C. Diluted to 1 ng/μL in buffer just prior to experiment.
MeOSuc-Ala-Ala-Pro-Val-AMC (Calbiochem Cat # 324740) was dissolved in buffer to 4 mM (398 μL/mg) just prior to experiment. Km was determined to be 560 μM.
The assay was performed in 96-well plates. 80 μL assay buffer was added to the well followed by 10 μL enzyme (1 ng/μL). Incubated for 10 min. at 37° C., then 10 μL substrate was added, and subsequently a compound of the invention (10 μM in the assay) The excitation wavelength was 380 nm, and the emission was measured at 460 nm for 10-20 minutes at 37° C. Each measurement was made in duplicate. In the software (SOFTmax Pro) used for data,collection from the fluorometer (Molecular Devices: Gemini XS), it was ensured that the measured slopes were linear (R^2>0.99). Data was exported to GraphPad Prism and nonlinear regression was performed using the option sigmoidal dose-response (variable slope).

CYP1A2 = biological target: T2, CYP1A2 (Homo sapiens, UniProt P05177); assay: Human CYP1A2 assay (Vivid CYP1A2 Blue Screening Kit); assay type: in vitro ADME; settings: 20 μM cutoff; read-out: Metabolism: CYP enzymes (20 μM cutoff or IC50) CYP1A2
T2 construct: purchased PanVera Vivid CYP1A2 Blue Screening Kit; host or cells: insect cells infected with baculovirus (microsomes)
T2 sequence (P05177 2-516 limits assumed): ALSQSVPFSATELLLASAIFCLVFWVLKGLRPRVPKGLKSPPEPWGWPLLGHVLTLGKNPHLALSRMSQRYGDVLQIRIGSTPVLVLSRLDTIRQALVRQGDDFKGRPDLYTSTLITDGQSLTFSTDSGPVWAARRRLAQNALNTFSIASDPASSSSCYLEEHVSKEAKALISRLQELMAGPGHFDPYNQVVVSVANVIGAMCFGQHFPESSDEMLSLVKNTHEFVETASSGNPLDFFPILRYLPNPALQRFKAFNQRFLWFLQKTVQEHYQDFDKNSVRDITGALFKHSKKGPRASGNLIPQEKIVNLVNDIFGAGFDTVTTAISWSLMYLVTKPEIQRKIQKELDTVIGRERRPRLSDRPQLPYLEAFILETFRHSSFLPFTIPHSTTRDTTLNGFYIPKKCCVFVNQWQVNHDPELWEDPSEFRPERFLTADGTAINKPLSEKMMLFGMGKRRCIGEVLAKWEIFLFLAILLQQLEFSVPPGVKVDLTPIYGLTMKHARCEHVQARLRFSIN
Description: This assay was used to determine the effect of a compound of the invention on the CYP1A2 liver metabolizing enzyme.
Vivid® CYP1A2 Blue Screening Kit from PanVera was used.
Vivid®CYP450 Reaction Buffer I: 200 mM potassium phosphate buffer, pH 8.
CYP1A2 baculosoniese® reagent: CYP1A2 and […] (P450-specific content: 1.1 μM). Microsomes prepared from insect cells that were infected with baculovirus containing the cDNA for human CYP1A2 and rabbit cytochrome P450 reductase.
Regenerating System: 333 mM glucose-6-phosphate and 40 U/mL glucose-6-phosphate dehydrogenase in 100 mM potassium phosphate buffer, pH 8.
Vivid® CYP1A2 Blue Substrate.
Vivid® Blue Standard: 3-cyano-7-hydroxycoumarin.
10 mM NADP^+ in 100 mM potassium phosphate buffer, pH 8.
(§1) Tubes thawed on ice. 2× reaction buffer dispensed (room temperature) in two eppendorf tubes (for Mix A and Mix B).
(§2) Controls or compounds of the invention: Diluted to a concentration of 50 μM. Positive control compound: α-naphthoflavone.
(§3) Negative controls: DMSO and H2O.
Mix A: 485 μL reaction buffer, 10 μL regeneration system, 5 μL Baculosome reagent. Mixed gently and placed on ice. […]
In a 96-well plate (Costar c-3904), 40 μL of 50 μM sample dispensed. […] Fluorescence determined (Molecular Devices, SPECTRAmax Gemini EM): Ex: 409 nm, Em: 460 nm, at 37° C. for 20 min. (Automix: 5 s, top read.).

CYP2C19 = biological target: T3, CYP2C19 (Homo sapiens, UniProt P33261); assay: CYP2C19 assay (Vivid CYP2C19 Red Screening Kit); assay type: in vitro ADME; settings: 20 μM cutoff; read-out: Metabolism: CYP enzymes (20 μM cutoff or IC50) CYP2C19
T3 construct: purchased PanVera Vivid CYP2C19 Red Screening Kit
Description: as §1, §2, §3
(§4) Mix A: 485 μL reaction buffer, 10 μL regeneration system, 5 μL Baculosome reagent. Mixed gently and placed on ice.
(§5) Mix B: 88.5 μL reaction buffer, 1.5 μL substrate, 10 μL 10 mM NADP^+.
(§6) In a 96-well plate (Costar c-3904), 40 μL of 50 μM sample dispensed. 50 μl Mix A added. Incubated 20 min. at rt. Then, 10 μl of Mix B added. Fluorescence determined (Molecular Devices, SPECTRAmax Gemini EM): Ex: 409 nm, Em: 460 nm, at 37° C. for 20 min. (Automix: 5 s, top read.).
(§7) Following the procedure for CYP1A2, using the appropriate kits below, the effect of a compound of the invention on the other CYP enzymes was determined:
Vivid® CYP2C19 Red Screening Kit from PanVera.

CYP2D6 = biological target: T4, CYP2D6 (Homo sapiens, UniProt P10635); assay: CYP2D6 assay (Vivid CYP2D6 Cyan Screening Kit); assay type: in vitro ADME; settings: 20 μM cutoff; read-out: Metabolism: CYP enzymes (20 μM cutoff or IC50) CYP2D6
T4 construct: purchased PanVera Vivid CYP2D6 Cyan Screening Kit
Description: as §1, §2, §3, §4, §5, §6, §7
Vivid® CYP2D6 Cyan Screening Kit from PanVera.

T4 sequence (P10635 whole entry): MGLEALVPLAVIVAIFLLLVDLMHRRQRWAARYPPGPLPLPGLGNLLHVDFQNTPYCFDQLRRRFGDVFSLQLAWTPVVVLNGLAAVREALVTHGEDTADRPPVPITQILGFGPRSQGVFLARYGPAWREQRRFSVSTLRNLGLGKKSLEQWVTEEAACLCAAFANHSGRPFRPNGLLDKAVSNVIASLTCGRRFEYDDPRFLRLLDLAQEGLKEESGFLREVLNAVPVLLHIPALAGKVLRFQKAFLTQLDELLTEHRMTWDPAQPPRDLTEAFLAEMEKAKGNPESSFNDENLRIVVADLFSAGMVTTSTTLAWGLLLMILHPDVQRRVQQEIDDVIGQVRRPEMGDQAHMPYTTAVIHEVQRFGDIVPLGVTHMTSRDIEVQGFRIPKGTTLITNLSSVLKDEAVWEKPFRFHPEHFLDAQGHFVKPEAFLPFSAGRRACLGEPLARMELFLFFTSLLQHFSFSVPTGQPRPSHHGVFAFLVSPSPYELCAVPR
T3 sequence (P33261 whole entry): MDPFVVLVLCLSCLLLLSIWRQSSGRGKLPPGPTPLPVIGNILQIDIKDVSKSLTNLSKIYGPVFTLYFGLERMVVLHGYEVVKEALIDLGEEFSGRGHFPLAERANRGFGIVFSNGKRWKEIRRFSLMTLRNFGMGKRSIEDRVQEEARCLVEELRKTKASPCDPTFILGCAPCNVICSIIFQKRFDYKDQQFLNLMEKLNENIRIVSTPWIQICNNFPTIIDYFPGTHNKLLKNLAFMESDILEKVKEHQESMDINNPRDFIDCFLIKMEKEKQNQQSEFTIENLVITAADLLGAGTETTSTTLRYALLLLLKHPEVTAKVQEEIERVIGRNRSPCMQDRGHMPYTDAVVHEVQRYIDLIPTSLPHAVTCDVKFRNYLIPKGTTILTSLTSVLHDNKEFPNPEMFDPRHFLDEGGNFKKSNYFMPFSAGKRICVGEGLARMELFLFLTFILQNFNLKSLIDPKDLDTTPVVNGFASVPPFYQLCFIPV

With `CC[C@H](N)C(=O)NNC(=O)N[C@@H](CCc1ccccc1)C(=O)N[C@@H](Cc1cccc(F)c1)C(N)=O` [Example 11, 1-(2S-2-Aminobutanoyl)-4-[2S-N-[2S-3-(m-fluorophenyl)propan-2-yl-amide]-4-phenylbutan-2-yl-amide]semicarbazide] (H-[Abu][azaGly][hPhe][Phe(3-F)]-NH2) the “Inhibition of neutrophil elastase (in words)” value [1] was “does not inhibit”, the IC50 ([1]; human neutrophil elastase, 10 μM cutoff, read-out: Secondary enzymatic screening (10 μM cutoff or IC50) Neutrophil elastase) was over 10 µM and the IC50 (CYP1A2) was over 20 µM. The IC50 (CYP2C19) was over 20 µM and the IC50 (CYP2D6) was over 20 µM.
